# Measured values: patent publication US5849766A, “Carbamoyl substituted heterocycles” (Eli Lilly and Company, priority 1997, dated 1998)
# System: thromboxane receptor
# Test: Absence of Agonist Activity (pressor response in pithed rats)
# Assay type: in vivo, rat
# From the text: 3. Absence of Agonist Activity.
"pressor response (TXA2 agonist activity) (i.v., pithed rats, doses up to 10 mg/kg)",SMILES,"increase in the mean arterial pressure (0.1 mg/kg i.v., at one minute after dosing)"
–,O=C(O)CCC/C=C\CC1C2CCC(C2)C1NS(=O)(=O)c1ccccc1 (centres unmarked) [Example S-145],"transient, but significant, increase in the mean arterial pressure"
absence of a pressor response,"O=C(O)CCCC/C=C(\c1ccc(-c2nc(C(=O)NCCCCC3CCCCC3)co2)cc1)c1cccnc1 [Example 2, (E)-7-[4-[4-[[(4-Cyclohexylbutyl)amino]carbonyl]-2-oxazolyl]phenyl]-7-(3-pyridyl)hept-6-enoic Acid]",–
